Test results from US8912209B2, “Rock inhibitors” (Amakem NV, priority 2010, dated 2014).

Tests used:
ROCK II = target: T1, ROCK II (Homo sapiens, UniProt O75116); assay: ROCK II kinase inhibition, Method 1 Proqinase setup (33P radioisotopic protein kinase assay); assay type: biochemical; details: 33P radioisotopic assay, 1 μM ATP, read-out: IC50 Meth. 1
T1 construct: purchased Proqinase
Method: A ^33P radioisotopic protein kinase assay is used to determine the IC50 for inhibiting ROCK II. A final 50 μl reaction cocktail, containing 60 mM HEPES-NaOH (pH 7.5), 3 mM MgCl2, 3 mM MnCl2, 3 μM Na-orthovanadate, 1.2 mM DTT, 1 μM ATP, 50 μg/ml PEG20.000, 1% (v/v) DMSO, 1 μM ATP (approx. 3×10^5 cpm ^33P-γ-ATP), the substrate (Substrate: S6 peptide—2000 ng/well) and recombinant protein kinase (0.5 nM-2.5 ng/well) is mixed on a shaker and incubated at 30° C. for 80 minutes. The reaction is stopped by the addition of 50 μl of a 2% solution of H3PO4 and mixed on a shaker. After washing twice with 200 μl of a 0.9% solution of NaCl, the dry plate is counted.

ROCKα/ROCKII = target: T2, ROCKα/ROCKII (Homo sapiens, UniProt O75116); assay: ROCK inhibition, Method 2 fluorescence polarization (FP) assay, ROCK IMAP Kit; assay type: biochemical; details: 10 μM ATP, read-out: IC50 Meth. 2
T2 construct: purchased Upstate Biotechnology 14-451
T2 sequence (O75116 whole entry): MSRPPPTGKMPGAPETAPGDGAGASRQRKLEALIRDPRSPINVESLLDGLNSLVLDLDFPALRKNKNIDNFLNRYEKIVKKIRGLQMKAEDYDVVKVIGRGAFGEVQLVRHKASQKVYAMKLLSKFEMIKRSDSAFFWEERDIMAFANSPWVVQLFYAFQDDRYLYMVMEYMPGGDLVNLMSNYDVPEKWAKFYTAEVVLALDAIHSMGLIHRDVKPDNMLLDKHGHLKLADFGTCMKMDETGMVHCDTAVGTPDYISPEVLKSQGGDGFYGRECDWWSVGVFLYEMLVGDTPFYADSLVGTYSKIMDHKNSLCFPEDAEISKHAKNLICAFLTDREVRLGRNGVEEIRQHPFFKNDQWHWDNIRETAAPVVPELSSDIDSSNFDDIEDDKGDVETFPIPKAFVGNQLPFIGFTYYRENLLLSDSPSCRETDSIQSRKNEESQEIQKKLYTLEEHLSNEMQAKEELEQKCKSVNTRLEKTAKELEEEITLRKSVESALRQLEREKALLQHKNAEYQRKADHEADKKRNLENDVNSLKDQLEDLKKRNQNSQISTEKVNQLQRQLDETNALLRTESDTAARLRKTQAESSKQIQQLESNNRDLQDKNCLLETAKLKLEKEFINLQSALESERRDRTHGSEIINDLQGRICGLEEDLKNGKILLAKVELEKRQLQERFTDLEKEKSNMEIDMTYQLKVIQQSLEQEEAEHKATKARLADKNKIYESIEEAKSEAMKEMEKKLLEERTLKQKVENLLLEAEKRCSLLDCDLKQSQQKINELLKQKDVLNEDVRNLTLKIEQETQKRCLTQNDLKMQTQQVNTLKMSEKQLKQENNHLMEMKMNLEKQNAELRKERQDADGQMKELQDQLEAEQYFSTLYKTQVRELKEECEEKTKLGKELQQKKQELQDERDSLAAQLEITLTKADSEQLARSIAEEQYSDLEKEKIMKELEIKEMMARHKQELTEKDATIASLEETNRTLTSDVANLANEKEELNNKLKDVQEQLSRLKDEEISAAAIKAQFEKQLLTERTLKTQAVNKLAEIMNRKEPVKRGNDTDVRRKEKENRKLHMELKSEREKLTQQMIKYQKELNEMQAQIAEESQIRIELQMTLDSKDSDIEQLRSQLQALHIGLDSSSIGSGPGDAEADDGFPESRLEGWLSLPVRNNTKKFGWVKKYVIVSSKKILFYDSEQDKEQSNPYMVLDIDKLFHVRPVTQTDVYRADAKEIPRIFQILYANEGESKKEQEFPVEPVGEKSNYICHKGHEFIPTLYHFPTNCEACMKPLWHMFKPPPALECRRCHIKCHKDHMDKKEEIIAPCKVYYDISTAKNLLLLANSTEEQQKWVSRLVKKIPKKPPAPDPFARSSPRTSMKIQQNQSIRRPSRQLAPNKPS
Method: The inhibition assays were performed with a fluorescence polarization (FP) assay using the commercially available ROCK IMAP Kit from Molecular Devices (Product ID. No. R8093), essentially in accordance with the protocol supplied by the manufacturer. […] The enzyme mix ROCKα/ROCKII was obtained from Upstate Biotechnology (Product ID No 14-451).
In summary, all compounds were screened in the wells of a 384 well plate for enzymatic inhibition with concentrations varying from 100 μM to 0.3 nM using a stepwise 3 (or 2)-fold dilution.
To perform the assay, 1 μl of a solution of the compound to be tested in DMSO (at each concentration) was added to 2 μl of a solution of the enzyme in 10 mM Tris-HCl, 10 mM MgCl2, 0.1% BSA, 0.05% NaN3, pH 7,2. The final concentration of the enzyme was 2.6 nM.
After incubating for 30 minutes at RT, 2 μl of a mixture of ATP and the protein substrate in 10 mM Tris-HCl, 10 mM MgCl2, 0.1% BSA, 0.05% NaN3, pH 7.2 was added. The final concentration of the ATP was 10 μM and final concentration of protein substrate was 0.2 μM.
After incubating for 60 minutes at RT, 12 μl of the IMAP Binding Solution (mix of the IMAP Binding Buffer A (1×) and the IMAP Binding Reagent (from the ROCK IMAP kit)) was added.
The mixture thus obtained (total volume: 17 μl) was incubated for 60 minutes at RT, upon which the fluorescence polarization was measured using an automated plate reader (Perkin Elmer, Model Envision 2100-0010 HTS) with FP filters: excitation filter FITC FP 480 and emission filters FITC FP P-pol 535 and FITC FP S-pol 535 (Perkin-Elmer). The results were fitted to a curve using the XL-Fit algorithm and IC50 values were calculated for each fitted curve, again using the XL-Fit algorithm.

[1] = Stability towards drug metabolizing enzymes in lung S9; assay type: in vitro ADME; details: human, lung S9 from smokers with NADPH, UDPGA, PAPS and GSH, read-out: t½ human lung S9
Method: i) C.2.2. Stability Towards Drug Metabolizing Enzymes in Lung S9
A 1 μM solution of the ROCK inhibitors is incubated with a reaction mixture containing lung S9 (from smokers) as well as the cofactors NADPH, UDPGA, PAPS and GSH. Samples are collected at 0, 15, 30 and 60 minutes post incubation. Negative control samples incubated with ROCK inhibitors and S9 fraction in the absence of cofactors are run in parallel. By using LC-MS/MS analysis, the percent of ROCK compounds remaining at each time point, the metabolic half-life of the ROCK compounds (expressed in minutes) and the metabolic half-life of the control compounds are determined.

[2] = Stability assay in rat plasma; assay type: in vitro ADME; details: 1 μM in rat plasma, LC-MS/MS; read-out: t½ rat plasma
Method: (§1) C.2.1. Stability Assay in Human and/or Rat Plasma
(§2) Compounds are incubated at a concentration of 1 μM in rat (mice or rabbit) or human plasma. Samples are taken at fixed time points and the remnant of compound is determined by LC-MS/MS after protein precipitation. Half life is expressed in minutes.

[3] = Stability assay in human plasma; assay type: in vitro ADME; details: 1 μM in human plasma, LC-MS/MS; read-out: t½ human plasma
Method: as §1, §2

T1 sequence (O75116 whole entry): as above

Compound	IC50 (ROCK II) [nM]	IC50 (ROCKα/ROCKII) [nM]	half-life at 1 μM [1] [min]	half-life at 1 μM [2] [min]	half-life at 1 μM [3] [min]
COC(=O)c1cccc(-c2cc(C(=O)Nc3ccncc3F)ccc2C(C)N)c1 (stereo not drawn) [Compound 5, 2′-(1-Amino-ethyl)-5′-(3-fluoro-pyridin-4-ylcarbamoyl)-biphenyl-3-carboxylic acid methyl ester]	100 to 1000	< 100			
CCOC(=O)c1cccc(-c2cc(C(=O)Nc3ccncc3)ccc2C(C)N)c1 (stereo not drawn) [Compound 8, 2′-(1-Amino-ethyl)-5′-(pyridin-4-ylcarbamoyl)-biphenyl-3-carboxylic acid ethyl ester]	< 100	< 100			
CCCOC(=O)c1cccc(-c2cc(C(=O)Nc3ccncc3)ccc2C(C)N)c1 (stereo not drawn) [Compound 11, 2′-(1-Amino-ethyl)-5′-(pyridin-4-ylcarbamoyl)-biphenyl-3-carboxylic acid propyl ester]	< 100	< 100			
CCCOC(=O)c1cccc(-c2cc(C(=O)Nc3ccncc3F)ccc2C(C)N)c1 (stereo not drawn) [Compound 12, 2′-(1-Amino-ethyl)-5′-(3-fluoro-pyridin-4-ylcarbamoyl)-biphenyl-3-carboxylic acid propyl ester]	100 to 1000	< 100			
CCCCOC(=O)c1cccc(-c2cc(C(=O)Nc3ccncc3)ccc2C(C)N)c1 (stereo not drawn) [Compound 13, 2′-(1-Amino-ethyl)-5′-(pyridin-4-ylcarbamoyl)-biphenyl-3-carboxylic acid butyl ester]	< 100	< 100			
CC(C)COC(=O)c1cccc(-c2cc(C(=O)Nc3ccncc3F)ccc2C(C)N)c1 (stereo not drawn) [Compound 28, 2′-(1-Amino-ethyl)-5′-(3-fluoro-pyridin-4-ylcarbamoyl)-biphenyl-3-carboxylic acid isobutyl ester]	100 to 1000	100 to 1000			
CC(N)c1ccc(C(=O)Nc2ccncc2F)cc1-c1cccc(C(=O)OCC2CC2)c1 (stereo not drawn) [Compound 37, 2′-(1-Amino-ethyl)-5′-(3-fluoro-pyridin-4-ylcarbamoyl)-biphenyl-3-carboxylic acid cyclopropylmethyl ester]	100 to 1000	< 100			
CC(N)c1ccc(C(=O)Nc2ccncc2)cc1-c1cccc(C(=O)OCC2CCCO2)c1 (stereo not drawn) [Compound 44, 2′-(1-Amino-ethyl)-5′-(pyridin-4-ylcarbamoyl)-biphenyl-3-carboxylic acid tetrahydro-furan-2-ylmethyl ester]	< 100	< 100			
CC(N)c1ccc(C(=O)Nc2ccncc2)cc1-c1cccc(C(=O)OCC2CCCCO2)c1 (stereo not drawn) [Compound 45, 2′-(1-Amino-ethyl)-5′-(pyridin-4-ylcarbamoyl)-biphenyl-3-carboxylic acid tetrahydro-pyran-2-ylmethyl ester]	< 100	< 100			
CC(N)c1ccc(C(=O)Nc2ccncc2)cc1-c1cccc(C(=O)OCCF)c1 (stereo not drawn) [Compound 60, 2′-(1-Amino-ethyl)-5′-(pyridin-4-ylcarbamoyl)-biphenyl-3-carboxylic acid 2-fluoro-ethyl ester]	100 to 1000	< 100			
CC(N)c1ccc(C(=O)Nc2ccncc2)cc1-c1cccc(C(=O)OCCO)c1 (stereo not drawn) [Compound 65, 2′-(1-Amino-ethyl)-5′-(pyridin-4-ylcarbamoyl)-biphenyl-3-carboxylic acid 2-hydroxy-ethyl ester]	< 100	< 100	> 60		
CC(N)c1ccc(C(=O)Nc2ccncc2)cc1-c1cccc(C(=O)Oc2ccccc2)c1 (stereo not drawn) [Compound 70, 2′-(1-Amino-ethyl)-5′-(pyridin-4-ylcarbamoyl)-biphenyl-3-carboxylic acid phenyl ester]	< 100	< 100			
CC(N)c1ccc(C(=O)Nc2ccncc2F)cc1-c1cccc(C(=O)Oc2ccccc2)c1 (stereo not drawn) [Compound 71, 2′-(1-Amino-ethyl)-5′-(3-fluoro-pyridin-4-ylcarbamoyl)-biphenyl-3-carboxylic acid phenyl ester]	100 to 1000	100 to 1000			
CC(N)c1ccc(C(=O)Nc2ccncc2)cc1-c1cccc(C(=O)OCCCOc2ccccc2)c1 (stereo not drawn) [Compound 88, 2′-(1-Amino-ethyl)-5′-(pyridin-4-ylcarbamoyl)-biphenyl-3-carboxylic acid 3-phenoxy-propyl ester]	< 100	100 to 1000			
CC(N)c1ccc(C(=O)Nc2ccncc2)cc1-c1cccc(C(=O)OCc2ccoc2)c1 (stereo not drawn) [Compound 90, 2′-(1-Amino-ethyl)-5′-(pyridin-4-ylcarbamoyl)-biphenyl-3-carboxylic acid furan-3-ylmethyl ester]	< 100	100 to 1000			
CCSC(=O)c1cccc(-c2cc(C(=O)Nc3ccncc3)ccc2CN)c1 [Compound 97, 2′-Aminomethyl-5′-(pyridin-4-ylcarbamoyl)-biphenyl-3-carbothioic acid S-ethyl ester]	< 100			38	44
CC(N)c1ccc(C(=O)Nc2ccncc2)cc1-c1cccc(OCCCSC2CCOC2=O)c1 (stereo not drawn) [Compound 131, 6-(1-Amino-ethyl)-3′-[3-(2-oxo-tetrahydro-furan-3-ylsulfanyl)-propoxy]-biphenyl-3-carboxylylic acid pyridin-4-ylamide]	100 to 1000	100 to 1000			
CC(N)c1ccc(C(=O)Nc2ccncc2)cc1-c1cccc(OC2CCOC2=O)c1 (stereo not drawn) [Compound 134, 6-(1-Amino-ethyl)-3′-(2-oxo-tetrahydro-furan-3-yloxy)-biphenyl-3-carboxylic acid pyridin-4-ylamide]	100 to 1000	< 100			
COC(=O)COc1cccc(-c2cc(C(=O)Nc3ccncc3)ccc2CN)c1 [Compound 137, [2′-Aminomethyl-5′-(pyridin-4-ylcarbamoyl)-biphenyl-3-yloxy]-acetic acid methyl ester]	100 to 1000			< 1	1.9
CCCOC(=O)CCc1cccc(-c2cc(C(=O)Nc3ccncc3)ccc2C(C)N)c1 (stereo not drawn) [Compound 166, 3-[2′-(1-Amino-ethyl)-5′-(pyridin-4-ylcarbamoyl)-biphenyl-3-yl]-propionic acid propyl ester]	100 to 1000	100 to 1000			
CC(N)c1ccc(C(=O)Nc2ccncc2)cc1-c1cccc(CCC(=O)Oc2ccccc2)c1 (stereo not drawn) [Compound 167, 3-[2′-(1-Amino-ethyl)-5′-(pyridin-4-ylcarbamoyl)-biphenyl-3-yl]-propionic acid phenyl ester]	100 to 1000	< 100			
COC(=O)c1cc(-c2cc(C(=O)Nc3ccncc3)ccc2C(C)N)c[nH]1 (stereo not drawn) [Compound 168, 4-[2-(1-Amino-ethyl)-5-(pyridin-4-ylcarbamoyl)-phenyl]-1H-pyrrole-2-carboxylic acid methyl ester]	100 to 1000	100 to 1000			
CC(N)c1ccc(C(=O)Nc2ccncc2)cc1-c1c[nH]c(C(=O)Oc2ccccc2)c1 (stereo not drawn) [Compound 170, 4-[2-(1-Amino-ethyl)-5-(pyridin-4-ylcarbamoyl)-phenyl]-1H-pyrrole-2-carboxylic acid phenyl ester]	100 to 1000	< 100			
CCCOC(=O)c1cc2c(-c3cc(C(=O)Nc4ccncc4)ccc3C(C)N)cccc2[nH]1 (stereo not drawn) [Compound 172, 4-[2-(1-Amino-ethyl)-5-(pyridin-4-ylcarbamoyl)-phenyl]-1H-indole-2-carboxylic acid propyl ester]	100 to 1000	100 to 1000			
